According to patent US12404289B2 (Gilead Sciences, Inc., priority 2020, dated 2025):

Tested on: Respiratory syncytial virus (RSV) strain A2
Assay: Hep-2 RSV2 384-well assay (EC50-HEP2-384)
Format: cell-based
Conditions: HEp-2 cells, RSV A2, MOI=4, 4 days, Table 3
[1] = human respiratory syncytial virus, HEp-2, 96 h

Compound CC(C)C(=O)O[C@H]1[C@@H](OC(=O)C(C)C)[C@](C#N)(c2ccc3c(N)ncnn23)O[C@@H]1COP(=O)(N[C@@H](C)C(=O)OC1CC2(CCCC2)C1)Oc1ccc(C(C)(C)C)cc1 (stereo partly drawn) [Example 100b, (2R,3R,4R,5R)-2-(4-aminopyrrolo[2,1-f][1,2,4]triazin-7-yl)-5-((((4-(tert-butyl)phenoxy)(((S)-1-oxo-1-(spiro[3.4]octan-2-yloxy)propan-2-yl)amino)phosphoryl)oxy)methyl)-2-cyanotetrahydrofuran-3,4-diyl bis(2-methylpropanoate)] has an EC50 of 95.5 nM.

CCOC(=O)[C@H](C)NP(=O)(OC[C@H]1O[C@@](C#N)(c2ccc3c(N)ncnn23)[C@H](O)[C@@H]1O)Oc1ccc(C23CC(C2)C3)cc1 (stereo partly drawn) [Example 41, Ethyl ((((2R,3S,4R,5R)-5-(4-aminopyrrolo[2,1-f][1,2,4]triazin-7-yl)-5-cyano-3,4-dihydroxytetrahydrofuran-2-yl)methoxy)(4-(bicyclo[1.1.1]pentan-1-yl)phenoxy)phosphoryl)-L-alaninate] gave an EC50 [1] of 142 nM.

For CC(C)C(=O)O[C@H]1[C@@H](OC(=O)C(C)C)[C@](C#N)(c2ccc3c(N)ncnn23)O[C@@H]1COP(=O)(N[C@@H](C)C(=O)OC1CC2(CCCC2)C1)Oc1ccc(C(C)(C)C)cc1 (stereo partly drawn) [Example 100a, (2R,3R,4R,5R)-2-(4-aminopyrrolo[2,1-f][1,2,4]triazin-7-yl)-5-((((4-(tert-butyl)phenoxy)(((S)-1-oxo-1-(spiro[3.4]octan-2-yloxy)propan-2-yl)amino)phosphoryl)oxy)methyl)-2-cyanotetrahydrofuran-3,4-diyl bis(2-methylpropanoate)], the EC50 [1] was 111 nM.

Compound COCCOC(=O)[C@H](C)NP(=O)(OC[C@H]1O[C@@](C#N)(c2ccc3c(N)ncnn23)[C@H](OC(=O)C(C)C)[C@@H]1OC(=O)C(C)C)Oc1ccc(C(C)(C)C)cc1 (stereo partly drawn) [Example 151, (2R,3R,4R,5R)-2-(4-aminopyrrolo[2,1-f][1,2,4]triazin-7-yl)-5-((((4-(tert-butyl)phenoxy)(((S)-1-(2-methoxyethoxy)-1-oxopropan-2-yl)amino)phosphoryl)oxy)methyl)-2-cyanotetrahydrofuran-3,4-diyl bis(2-methylpropanoate)] has an EC50 [1] of 55.6 nM.

C[C@H](NP(=O)(OC[C@H]1O[C@@](C#N)(c2ccc3c(N)ncnn23)[C@H](O)[C@@H]1O)Oc1ccc(C(C)(C)C)cc1)C(=O)OC1CCCCC1 (stereo partly drawn) [Example 142, cyclohexyl ((((2R,3S,4R,5R)-5-(4-aminopyrrolo[2,1-f][1,2,4]triazin-7-yl)-5-cyano-3,4-dihydroxytetrahydrofuran-2-yl)methoxy)(4-(tert-butyl)phenoxy)phosphoryl)-L-alaninate] was tested, and the EC50 [1] was 73.5 nM.

In the case of COCCOC(=O)[C@H](C)NP(=O)(OC[C@H]1O[C@@](C#N)(c2ccc3c(N)ncnn23)[C@H](OC(C)=O)[C@@H]1OC(C)=O)Oc1ccc(C(C)(C)C)cc1 (stereo partly drawn) [Example 150, (2R,3R,4R,5R)-2-(4-aminopyrrolo[2,1-f][1,2,4]triazin-7-yl)-5-((((4-(tert-butyl)phenoxy)(((S)-1-(2-methoxyethoxy)-1-oxopropan-2-yl)amino)phosphoryl)oxy)methyl)-2-cyanotetrahydrofuran-3,4-diyl Diacetate], the EC50 [1] is reported as 78.2 nM.

In the case of CCC(CC)COC(=O)[C@H](C)N[P@](=O)(OC[C@H]1O[C@@](C#N)(c2ccc3c(N)ncnn23)[C@H](OC(C)=O)[C@@H]1OC(C)=O)Oc1cccc2c1CCCC2 [Example 143, (2R,3R,4R,5R)-2-(4-aminopyrrolo[2,1-f][1,2,4]triazin-7-yl)-2-cyano-5-((((S)—(((S)-1-(2-ethylbutoxy)-1-oxopropan-2-yl)amino)((5,6,7,8-tetrahydronaphthalen-1-yl)oxy)phosphoryl)oxy)methyl)tetrahydrofuran-3,4-diyl Diacetate], the EC50 is reported as 737 nM.

Compound CCC(CC)COC(=O)[C@H](C)NP(=O)(OC[C@H]1O[C@@](C#N)(c2ccc3c(N)ncnn23)[C@H](O)[C@@H]1O)Oc1ccc(N2CCOCC2)cc1 (stereo partly drawn) [Example 92, 2-ethylbutyl ((((2R,3S,4R,5R)-5-(4-aminopyrrolo[2,1-f][1,2,4]triazin-7-yl)-5-cyano-3,4-dihydroxytetrahydrofuran-2-yl)methoxy)(4-morpholinophenoxy)phosphoryl)-L-alaninate] has an EC50 [1] of 2490 nM.

CC(C)C(=O)O[C@H]1[C@@H](OC(=O)C(C)C)[C@](C#N)(c2ccc3c(N)ncnn23)O[C@@H]1COP(=O)(N[C@@H](C)CC(=O)OC1CCC1)Oc1ccc(C(C)(C)C)cc1 (stereo partly drawn) [Example 167, (2R,3R,4R,5R)-2-(4-aminopyrrolo[2,1-f][1,2,4]triazin-7-yl)-5-((((4-(tert-butyl)phenoxy)(((S)-4-cyclobutoxy-4-oxobutan-2-yl)amino)phosphoryl)oxy)methyl)-2-cyanotetrahydrofuran-3,4-diyl bis(2-methylpropanoate)] was tested, and the EC50 [1] was 5000 nM.

For CCCOC(=O)[C@H](C)NP(=O)(OC[C@H]1O[C@@](C#N)(c2ccc3c(N)ncnn23)[C@H](O)[C@@H]1O)Oc1ccc(C(C)(C)C)cc1 (single isomer, unassigned) [Example 47b], the EC50 was 68.3 nM.

For CCCOC(=O)[C@H](C)NP(=O)(OC[C@H]1O[C@@](C#N)(c2ccc3c(N)ncnn23)[C@H](O)[C@@H]1O)Oc1ccc(C(C)(C)C)cc1 (single isomer, unassigned) [Example 47a], the EC50 [1] was 41.6 nM.

Compound CCC(CC)COC(=O)[C@H](C)NP(=O)(OC[C@H]1O[C@@](C#N)(c2ccc3c(N)ncnn23)[C@H](OC(C)=O)[C@@H]1OC(C)=O)Oc1ccc(OC2CCCCC2)cc1 (stereo partly drawn) [Example 152, (2R,3R,4R,5R)-2-(4-aminopyrrolo[2,1-f][1,2,4]triazin-7-yl)-2-cyano-5-((((4-(cyclohexyloxy)phenoxy)(((S)-1-(2-ethylbutoxy)-1-oxopropan-2-yl)amino)phosphoryl)oxy)methyl)tetrahydrofuran-3,4-diyl Diacetate] has an EC50 [1] of 211 nM.

In the case of CCC(CC)COC(=O)[C@H](C)N[P@](=O)(OC[C@H]1O[C@@](C#N)(c2ccc3c(N)ncnn23)[C@H](OC(=O)C(C)C)[C@@H]1OC(=O)C(C)C)Oc1cccc2c1CCCC2 [Example 144, (2R,3R,4R,5R)-2-(4-aminopyrrolo[2,1-f][1,2,4]triazin-7-yl)-2-cyano-5-((((S)—(((S)-1-(2-ethylbutoxy)-1-oxopropan-2-yl)amino)((5,6,7,8-tetrahydronaphthalen-1-yl)oxy)phosphoryl)oxy)methyl)tetrahydrofuran-3,4-diyl bis(2-methylpropanoate)], the EC50 [1] is reported as 780 nM.

Compound COC(C)(C)COC(=O)[C@H](C)NP(=O)(OC[C@H]1O[C@@](C#N)(c2ccc3c(N)ncnn23)[C@H](O)[C@@H]1O)Oc1cccc2ccccc12 (stereo partly drawn) [Example 128, 2-methoxy-2-methylpropyl ((((2R,3S,4R,5R)-5-(4-aminopyrrolo[2,1-f][1,2,4]triazin-7-yl)-5-cyano-3,4-dihydroxytetrahydrofuran-2-yl)methoxy)(naphthalen-1-yloxy)phosphoryl)-L-alaninate] has an EC50 [1] of 525 nM.

Work on CCOC(=O)[C@H](C)NP(=O)(OC[C@H]1O[C@@](C#N)(c2ccc3c(N)ncnn23)[C@H](OC(C)=O)[C@@H]1OC(C)=O)Oc1ccc(C(C)(C)C)cc1 (stereo partly drawn) [Example 157, (2R,3R,4R,5R)-2-(4-aminopyrrolo[2,1-f][1,2,4]triazin-7-yl)-5-((((4-(tert-butyl)phenoxy)(((S)-1-ethoxy-1-oxopropan-2-yl)amino)phosphoryl)oxy)methyl)-2-cyanotetrahydrofuran-3,4-diyl Diacetate] yielded an EC50 [1] of 79.5 nM.

Compound CCC(CC)COC(=O)[C@H](C)NP(=O)(OC[C@H]1O[C@@](C#N)(c2ccc3c(N)ncnn23)[C@H](O)[C@@H]1O)Oc1ccc2c(c1)CCCC2 (stereo partly drawn) [Example 129, 2-ethylbutyl ((((2R,3S,4R,5R)-5-(4-aminopyrrolo[2,1-f][1,2,4]triazin-7-yl)-5-cyano-3,4-dihydroxytetrahydrofuran-2-yl)methoxy)((5,6,7,8-tetrahydronaphthalen-2-yl)oxy)phosphoryl)-L-alaninate] has an EC50 [1] of 362 nM.

C[C@H](NP(=O)(OC[C@H]1O[C@@](C#N)(c2ccc3c(N)ncnn23)[C@H](O)[C@@H]1O)Oc1ccc(C(C)(C)C)cc1)C(=O)OCC1CC1 (stereo partly drawn) [Example 101b, Cyclopropyl methyl ((((2R,3S,4R,5R)-5-(4-aminopyrrolo[2,1-f][1,2,4]triazin-7-yl)-5-cyano-3,4-dihydroxytetrahydrofuran-2-yl)methoxy)(4-(tert-butyl)phenoxy)phosphoryl)-L-alaninate] showed an EC50 of 79.2 nM.

CCCOC(=O)[C@H](C)NP(=O)(OC[C@H]1O[C@@](C#N)(c2ccc3c(N)ncnn23)[C@H](OC(=O)C(C)C)[C@@H]1OC(=O)C(C)C)Oc1ccc(C(C)(C)C)cc1 (single isomer, unassigned) [Example 48a] gave an EC50 [1] of 34 nM.

CCC(=O)O[C@H]1[C@@H](OC(=O)CC)[C@](C#N)(c2ccc3c(N)ncnn23)O[C@@H]1COP(=O)(N[C@@H](C)C(=O)OCC(C)(C)OC)Oc1ccc(C(C)(C)C)cc1 (stereo partly drawn) [Example 130, (2R,3R,4R,5R)-2-(4-aminopyrrolo[2,1-f][1,2,4]triazin-7-yl)-5-((((4-(tert-butyl)phenoxy)(((S)-1-(2-methoxy-2-methylpropoxy)-1-oxopropan-2-yl)amino)phosphoryl)oxy)methyl)-2-cyanotetrahydrofuran-3,4-diyl Dipropionate] gave an EC50 [1] of 52.8 nM.

For CCC(=O)O[C@H]1[C@@H](OC(=O)CC)[C@](C#N)(c2ccc3c(N)ncnn23)O[C@@H]1COP(=O)(N[C@@H](C)C(=O)OCCC(C)(C)CC)Oc1ccccc1 (stereo partly drawn) [Example 105b, (2R,3R,4R,5R)-2-(4-aminopyrrolo[2,1-f][1,2,4]triazin-7-yl)-2-cyano-5-((((((S)-1-((3,3-dimethylpentyl)oxy)-1-oxopropan-2-yl)amino)(phenoxy)phosphoryl)oxy)methyl)tetrahydrofuran-3,4-diyl Dipropionate], the EC50 was 60.7 nM.

Work on CC(=O)O[C@H]1[C@@H](OC(C)=O)[C@](C#N)(c2ccc3c(N)ncnn23)O[C@@H]1COP(=O)(N[C@@H](C)C(=O)OC1CCCCC1)Oc1ccc(C(C)(C)C)cc1 (stereo partly drawn) [Example 148, (2R,3R,4R,5R)-2-(4-aminopyrrolo[2,1-f][1,2,4]triazin-7-yl)-5-((((4-(tert-butyl)phenoxy)(((S)-1-(cyclohexyloxy)-1-oxopropan-2-yl)amino)phosphoryl)oxy)methyl)-2-cyanotetrahydrofuran-3,4-diyl Diacetate] yielded an EC50 [1] of 59.3 nM.
